Among the data in ChEMBL document CHEMBL3576768, “α-Glucosidase Inhibitors from a Xylaria feejeensis Associated with Hintonia latiflora” (J Nat Prod, 2015) are IC50 and inhibition values, retold here.

Molecules are shown by their SMILES.

Assay [1] can be described thus: (§1) Inhibition of Saccharomyces cerevisiae alpha-glucosidase using pNPG as substrate preincubated for 10 mins followed by substrate addition measured after 20 mins by spectrophotometric analysis.
The subject of a further assay is Saccharomyces cerevisiae. The assay is described as §1.

Compound `C[C@H]1O[C@H](O[C@H]2[C@H](O)[C@@H](O)[C@@H](O[C@H]3[C@H](O)[C@@H](O)C(O)O[C@@H]3CO)O[C@@H]2CO)[C@H](O)[C@@H](O)[C@@H]1N[C@H]1C=C(CO)[C@@H](O)[C@H](O)[C@H]1O` (stereo not given in full) [ACARBOSE] showed a 50% inhibitory concentration (IC50) in assay [1] of 545 µM. As for `C[C@@H]1OC(=O)c2c(O)cccc2[C@@H]1O`, the inhibition entry in the assay on Saccharomyces cerevisiae is “Dose-dependent effect”. This compound yielded an IC50 in assay [1] of 549 µM.

Regarding `C[C@@H]1OC(=O)c2c(O)cccc2[C@H]1O`, in the assay with Saccharomyces cerevisiae, the inhibition entry is “Dose-dependent effect”. This compound also registered an IC50 in assay [1] of 441 µM.
